According to patent publication US9766250B2, “Method for detecting protein-protein interaction” (MEDICAL & BIOLOGICAL LABORATORIES CO., LTD., priority 2011, dated 2017):

Key:
[1] = tested on: interaction between an ERK substrate and Pin1(ww); experiment: Time course of fluorescent foci after EGF and U0126, 293 cells (Example 27); type: cell-based
Experimental: On the next day, EGF (manufactured by SIGMA CO.) was added to the cells to the final concentration of 50 ng/ml. Further, 14 minutes thereafter, U0126 was added to the cells to the final concentration of 10 μM. Meanwhile, the cell observation was started 2 minutes before the EGF addition, and the observed images were obtained every 15 seconds. The obtained images were used to analyze a total fluorescence luminance of fluorescent foci (assemblies) by the same method as that described in Example 11, and a graph was prepared by plotting the total fluorescence luminance against time.

[2] = tested on: interaction between Rac1 and PBD; experiment: Localization of fluorescent foci after mevastatin, Rac1/PBD (Example 22); type: cell-based; conditions: cells co-expressing AG-Rac1 and p62(PB1)-PBD; 10 μM; 15 hours
Experimental: (§1) Then, each of the following combinations of the plasmid DNAs was mixed in equal amounts and introduced into cells by the same method as in Example 2: • a combination of phAG-Rac1 with pp62(PB1)-PBD; and • a combination of phAG-Rac1 with pRhoGDI-p62(PB1). Then, after culturing for 6 hours after the transfection, an inhibitor mevastatin (Enzo Life Sciences, Inc.) against geranylgeranyl group modification was added to the final concentration of 10 μM, allowed for further culturing for 15 hours, and observed.

[3] = tested on: interaction between Rac1 and RhoGDI; experiment: Fluorescent foci after mevastatin, Rac1/RhoGDI (Example 22); type: cell-based; conditions: cells co-expressing AG-Rac1 and RhoGDI-p62(PB1); 10 μM; 15 hours
Experimental: as §1

[4] = tested on: interaction between calmodulin and M13 peptide of myosin light chain kinase 2; conditions: 200 μM
Experimental: pCalmodulin-hAG and pM13peptide-p62(PB1) were mixed in equal amounts and introduced into HeLaS3 cells by the same method as that described in Example 1. Then, 200 μM histamine (manufactured by Wako Pure Chemical Industries, Ltd.) was added thereto, and fluorescence images were captured over time.

[5] = tested on: interaction between KRas and cRaf; experiment: EGF-dependent fluorescent foci near the cell membrane, Cos-7 cells (Example 23); type: cell-based; conditions: Cos-7 cells co-expressing p62(PB1)-KRas(WT) and AG-cRaf(R59A); 50 ng/ml; 37° C. for 30 minutes
Experimental: The cells were observed using a total internal reflection fluorescence microscopy system with arc lamp source (manufactured by Olympus Corporation, IX71-ARCEVA) capable of exciting only the vicinity of the cell membrane. Additionally, regarding the combination of pp62(PB1)-KRas (WT) with the phAG-cRaf (R59A), an image was obtained when no EGF was added. After that, EGF (manufactured by SIGMA CO.) was added to the cells to the final concentration of 50 ng/ml and left standing at 37° C. for 30 minutes. Then, the resultant was observed again.

[6] = tested on: interaction between HRas and cRaf; experiment: Time course of fluorescent foci after EGF, HRas/cRaf (Example 28); type: cell-based; conditions: cells with p62(PB1)-HRas(WT) and AG-cRaf(R59A); 50 ng/ml; vicinity of the cell membrane
Experimental: EGF (manufactured by SIGMA CO.) was added thereto to the final concentration of 50 ng/ml. A measurement apparatus capable of detecting a fluorescent signal only in the vicinity of the cell membrane was used for the observation. Note that the observation was started 5 minutes before the EGF addition, and continued at 5-minute intervals for 30 minutes after the addition. The observation was made another 30 minutes thereafter. On the basis of the obtained image data, analysis was performed by the same method as that described in Example 11, and a graph was prepared by plotting a total fluorescence intensity of fluorescent foci (assemblies) against time. Note that, in the graph, the x axis represents time (minutes), provided that time when EGF was added is 0, and the y axis represents the total fluorescence intensity of fluorescent foci (assemblies).

[7] = target: T1, interaction between BclX(L) and Bak (Homo sapiens, UniProt Q07817); experiment: Time course of fluorescent foci after ABT-737 addition, BclX(L)/Bak (Example 24); type: cell-based; conditions: 293 cells co-expressing p62(PB1)-BclX(L) and Bak-AG; 15 μM
T1 construct: region having the 1st to 209th amino acids of the BclX(L) protein; expressed in transfected cells; host or cells: 293 cells, transient
T1 sequence (Q07817 1-209): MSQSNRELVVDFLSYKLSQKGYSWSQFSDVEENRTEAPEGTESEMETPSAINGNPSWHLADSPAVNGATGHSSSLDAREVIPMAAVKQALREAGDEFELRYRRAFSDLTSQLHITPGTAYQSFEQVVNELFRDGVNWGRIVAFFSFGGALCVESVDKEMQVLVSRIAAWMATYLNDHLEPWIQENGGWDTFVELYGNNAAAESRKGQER
Experimental: (§2) The plasmid DNAs were mixed in equal amounts in the following combinations, and the genes were introduced into 293 cells by the same method as that described in Example 2: • a combination of pp62(PB1)-BclX(L) with pBak-hAG; and • a combination of pp62(PB1)-BclX(L) with phAG-Bax.
(§3) Then, to the 293 cells into these plasmid DNAs were introduced, ABT-737 (manufactured by Santa Cruz Biotechnology, Inc.) was added to the final concentration of 15 μM, and images were obtained by the same method as that described in Example 2 every 30 minutes for the cells co-expressing p62(PB1)-BclX(L) and Bak-AG, and every 5 minutes for the cells co-expressing p62(PB1)-BclX(L) and AG-Bax. On the basis of the obtained images, analysis was performed by the same method as that described in Example 11, and a graph was prepared by plotting a total fluorescence intensity of fluorescent foci (assemblies) against time. Note that, in the graph, the x axis represents time (minutes), provided that time when the drug was added is 0, and the y axis represents the total fluorescence intensity of fluorescent foci (assemblies).

[8] = target: T2, interaction between BclX(L) and Bax (Homo sapiens, UniProt Q07817); experiment: Time course of fluorescent foci after ABT-737 addition, BclX(L)/Bax (Example 24); type: cell-based; conditions: 293 cells co-expressing p62(PB1)-BclX(L) and AG-Bax; 15 μM
T2 construct: region having the 1st to 209th amino acids of the BclX(L) protein; expressed in transfected cells; host or cells: 293 cells, transient
T2 sequence (Q07817 1-209): as above
Experimental: as §2, §3

Q: How did the “fluorescent foci after U0126 addition” value ([1]; same cells, 10 μM, added 14 minutes after EGF) turn out when N#CC(=C(/N)Sc1ccccc1N)/C(C#N)=C(\N)Sc1ccccc1N [U0126, reference compound] was run?
A: the fluorescent foci were slowly decreased

Q: CC[C@H](C)C(=O)O[C@H]1CCC=C2C=C[C@H](C)[C@H](CC[C@@H]3C[C@@H](O)CC(=O)O3)[C@H]21 [mevastatin] was tested. Which “localization of the interaction between Rac1 and PBD” value [2] did it give?
A: the interaction took place only in the nuclei

Q: And the “interaction between Rac1 and RhoGDI” value [3]?
A: reduced

Q: How did the “fluorescent foci at the later time point” value ([4]; 490 seconds after the cytoplasm calcium ion concentration was decreased) turn out when NCCc1c[nH]cn1 [histamine] was run?
A: extinguished

Q: What about the “fluorescent focus formation after ligand addition” value ([4]; HeLaS3 cells expressing Calmodulin-AG and M13peptide-p62(PB1), 90 seconds after addition) of the same molecule?
A: fluorescent focus formation was detected

Q: What does the source list for “epidermal growth factor (NSDSECPLSHDGYCLHDGVCMYIEALDKYACNCVVGYIGERCQYRDLKWWELR; Epidermal growth factor; UniProt P01133 971-1023, looked up) [EGF]”?
A: assembly formation after EGF addition [5]: the assembly formation was observed at the cell membranes; fluorescent foci after EGF addition ([1]; 293 cells expressing p62(PB1)-ERK_substrate and AG-Pin1(ww)-NES, 50 ng/ml): fluorescent foci (assemblies) were significantly observed as time elapsed; interaction between HRas and cRaf after EGF addition [6]: took place by adding EGF

Q: How did the “time when the total fluorescence luminance reached a half value” [7] turn out when CN(C)CC[C@H](CSc1ccccc1)Nc1ccc(S(=O)(=O)NC(=O)c2ccc(N3CCN(Cc4ccccc4-c4ccc(Cl)cc4)CC3)cc2)cc1[N+](=O)[O-] [ABT-737] was run?
A: approximately 80 minutes

Q: And the “time when the total fluorescence luminance reached a half value” [8]?
A: approximately 35 minutes
